The test system of data set [1] is macrophages infected with L. amazonensis. The experiment in a line: Reactive oxygen and nitrogen species (DCF-DA, DAF-FM diacetate). The class given is cell-based. The following applies: 24 h; for expression of ROS: 2, 4 and 8 µg/mL, DCF-DA, compared to basal macrophage. The text has this: The assay for the quantification of reactive oxygen species (ROS) and reactive nitrogen species (RNS) was executed using, respectively, the probe 2′,7′-dichlorodihydrofluorescein diacetate (DCF-DA) and 4-amino-5-methylamino-2′,7′-difluorofluorescein diacetate (DAF-FM diacetate), which produce 2–7-dichlorofluorescein (DCF) and 4-amino-5-methylamino-2′,7′-difluorofluorescein (DAF-FM) in the presence of the respective reactive species. Therefore, initially, macrophages were adhered to and infected with L. amazonensis in a plate, followed by the treatment with AMTAC-02 or ACMD-03 at concentrations of 2, 4, and 8 μg/mL. Subsequently, following a 24-h treatment period, the plates were incubated for 30 min with the DCF-DA probe diluted in saline (pH 7.2) and for 1 h with the DAF-FM diacetate probe diluted in saline (pH 7.2), respectively, in a humid chamber at 37 °C with 5% CO2, protected from light. The cells were washed twice with saline (pH 7.2) at room temperature and then resuspended in 200 µL of saline under the same conditions. The negative control comprised uninfected and untreated macrophages, while the positive control comprised untreated macrophages infected with L. amazonensis. Afterward, the fluorescence intensity in each sample was captured using the BD LRS II FORTESSA flow cytometer and the DIVA program version 7 (BD Bioscience). The mean fluorescence intensity (MFI) was then obtained by processing the data in FlowJoTM version 10.6.1. The experiment was performed in triplicate, and the results were calculated as the difference in MFI in each group.

Data set [2] has as its system J774A.1 macrophages. The experiment in a line: Cytotoxic effect in J774 macrophage cultures, MTT. Conditions: read-out: CC50 (50% cytotoxic concentration in J774 macrophage). Format: cell-based. How it is done:
J774A.1 macrophages (ATCC TIB-67) were kept cryopreserved in a Falcon tube containing 5 mL of DMEM (Dulbecco’s modified Eagle medium) culture medium (Gibco®), supplemented with 10% inactivated fetal bovine serum, 1% non-essential amino acids, and 1% gentamicin sulfate. The tube was centrifuged at 200 rpm for 10 min. Afterward, the supernatant was discarded, and the cells were resuspended in the culture medium and transferred to a culture bottle kept in an incubator at 37 °C with 5% CO2. The assays were carried out in triplicate using a 96-well plate to evaluate the cytotoxic effect of the selected spiro-acridine compounds on J774 macrophage cultures. The compounds were diluted and seeded at predetermined concentrations (32, 16, 8, 4, and 2 μg/mL), parallel to the distribution of 1.0 × 10^5 J774 macrophages per well. The plate was incubated for two hours in a 5% CO2 incubator at 37 °C. Only the cells were incubated in the negative control without the tested molecules. In contrast, the positive control was performed by incubating the macrophages with the commercial drug Amphotericin B®. Later, 10 μL of the MTT reagent was added per well, and the cultures were re-incubated for 4 h. Finally, 50 μL of DMSO was added to each well, and the absorbance was read on a SpectraMAX GeminiXS plate spectrophotometer (Molecular Devices LLC, San Jose, CA, USA) at a wavelength of 570 nm. […]

“Also recorded” adds a separate entry of the source.

With `COc1ccc(/C=N/N2C(=O)C(C#N)=CC23c2ccccc2Nc2ccccc23)cc1` [AMTAC-02, (E)-1′-((4-methoxybenzylidene)amino)-5′-oxo-1′,5′-dihydro-10H-spiro[acridine-9,2′-pyrrole]-4′-carbonitrile], the “expression of ROS” value in data set [1] was “significantly increased ROS expression”.

Regarding `N#CC1=CC2(c3ccccc3Nc3ccccc32)N(c2ccc(Cl)cc2)C1=O` [ACMD-03, (E)1′-(4-chlorophenyl)-5′-oxo-1′, 5′-dihydro-10H-spiro{acridine-9,2′-pyrrole]-4′-carbonitrile], the CC50 in data set [2] stood at 27.2 µM. Moreover, the “expression of ROS” value in data set [1] is recorded as “significantly increased ROS expression”. Further, the “expression of RNS” value in data set [1] (DAF-FM diacetate, versus infected macrophage) is recorded as “intensified RNS expression; also recorded: significantly increased (* p < 0.05) RNS at a concentration of 2 µg/mL”.

(Values after PMC12195250, “Synthesis, Biological Evaluation, Molecular Dynamics, and QM-MM Calculation of Spiro-Acridine Derivatives Against Leishmaniasis” (Microorganisms, 2025).)
